{"source": "ChEMBL document CHEMBL6115036", "about": "“Exploration of membrane-active cephalosporin derivatives as potent antibacterial agents against Staphylococcus aureus biofilms and persisters” (Eur J Med Chem, 2025)", "key": {"Staphylococcus aureus [1]": {"system": "Staphylococcus aureus", "experiment": "Antibacterial activity against Staphylococcus aureus infected in Kunming mouse model of subcutaneous abscess assessed as reduction in bacterial load in skin tissue at 10 mg/kg, sc measured after 48 hrs relative to control", "assay_type": "functional", "set-up": "scale not given: the % may be the effect or the level left"}, "Enterococcus faecalis": {"system": "Enterococcus faecalis", "experiment": "Antimicrobial activity against Enterococcus faecalis incubated for 16 to 18 hrs by broth dilution assay", "assay_type": "functional", "conditions": "time 16-18 hrs"}, "Staphylococcus aureus [2]": {"system": "Staphylococcus aureus", "experiment": "Antimicrobial activity against Staphylococcus aureus incubated for 16 to 18 hrs by broth dilution assay", "assay_type": "functional", "conditions": "time 16-18 hrs"}, "[3]": {"system": "Stenotrophomonas maltophilia", "experiment": "Antimicrobial activity against Stenotrophomonas maltophilia incubated for 16 to 18 hrs by broth dilution assay", "assay_type": "functional", "conditions": "time 16-18 hrs"}, "Escherichia coli": {"system": "Escherichia coli", "experiment": "Antimicrobial activity against Escherichia coli incubated for 16 to 18 hrs by broth dilution assay", "assay_type": "functional", "conditions": "time 16-18 hrs"}, "[4]": {"experiment": "Hemolytic activity in sheep red blood cells incubated for 1 hr", "assay_type": "toxicity, cell-based, Ovis aries, Erythrocyte"}, "Staphylococcus aureus [5]": {"system": "Staphylococcus aureus", "experiment": "Disruption of cell membrane in Staphylococcus aureus assessed as nucleic acid leakage at 32 ug/ml measured after 2 hrs by fluorescence based analysis", "assay_type": "functional, organism-based", "conditions": "dose 32.0 µg/ml"}, "Staphylococcus aureus [6]": {"system": "Staphylococcus aureus", "experiment": "Disruption of cell membrane in Staphylococcus aureus assessed as protein leakage at 32 ug/ml measured after 2 hrs by fluorescence based analysis", "assay_type": "functional, organism-based", "conditions": "dose 32.0 µg/ml"}, "Staphylococcus aureus [7]": {"system": "Staphylococcus aureus", "experiment": "Antibacterial activity against Staphylococcus aureus in presence of 50% sheep plasma", "assay_type": "functional, organism-based"}, "Staphylococcus aureus [8]": {"system": "Staphylococcus aureus", "experiment": "Antibacterial activity against Staphylococcus aureus in presence of 50% FBS", "assay_type": "functional, organism-based"}, "Staphylococcus aureus [9]": {"system": "Staphylococcus aureus", "experiment": "Bactericidal activity against Staphylococcus aureus measured for 3 to 6 hrs in presence of 50% sheep plasma", "assay_type": "functional, organism-based", "conditions": "time 3-6 hrs"}, "Staphylococcus aureus [10]": {"system": "Staphylococcus aureus", "experiment": "Induction of resistance development in Staphylococcus aureus at sub-MIC measured after 20 passages", "assay_type": "functional, organism-based"}, "Staphylococcus aureus [11]": {"system": "Staphylococcus aureus", "experiment": "Induction of resistance development in drug-resistant Staphylococcus aureus at sub-MIC measured after 20 passages in presence of norfloxacin", "assay_type": "functional, organism-based"}, "Staphylococcus aureus [12]": {"system": "Staphylococcus aureus", "experiment": "Induction of resistance development in drug-resistant Staphylococcus aureus at sub-MIC measured after 20 passages in presence of ciprofloxacin", "assay_type": "functional, organism-based"}, "Staphylococcus aureus [13]": {"system": "Staphylococcus aureus", "experiment": "Induction of resistance development in drug-resistant Staphylococcus aureus at sub-MIC measured after 20 passages in presence of levofloxacin", "assay_type": "functional, organism-based"}, "Staphylococcus aureus [14]": {"system": "Staphylococcus aureus", "experiment": "Induction of resistance development in drug-resistant Staphylococcus aureus at sub-MIC measured after 20 passages in presence of linezolid", "assay_type": "functional, organism-based"}, "Staphylococcus aureus [15]": {"system": "Staphylococcus aureus", "experiment": "Induction of resistance development in drug-resistant Staphylococcus aureus at sub-MIC measured after 20 passages in presence of rifampicin", "assay_type": "functional, organism-based"}, "Staphylococcus aureus [16]": {"system": "Staphylococcus aureus", "experiment": "Induction of resistance development in drug-resistant Staphylococcus aureus at sub-MIC measured after 20 passages in presence of vancomycin", "assay_type": "functional, organism-based"}, "Staphylococcus aureus [17]": {"system": "Staphylococcus aureus", "experiment": "Induction of resistance development in drug-resistant Staphylococcus aureus at sub-MIC measured after 20 passages in presence of cefuroxime sodium", "assay_type": "functional, organism-based"}, "Staphylococcus aureus [18]": {"system": "Staphylococcus aureus", "experiment": "Induction of resistance development in drug-resistant Staphylococcus aureus at sub-MIC measured after 20 passages in presence of ampicillin sodium", "assay_type": "functional, organism-based"}, "Staphylococcus aureus [19]": {"system": "Staphylococcus aureus", "experiment": "Induction of intracellular ROS accumulation in Staphylococcus aureus at 1 to 4 times MIC incubated overnight by DCFH-DA dye based analysis", "assay_type": "functional, organism-based"}, "Staphylococcus aureus [20]": {"system": "Staphylococcus aureus", "experiment": "Antibacterial activity against Staphylococcus aureus assessed as effect on quiescent cells at 100 to 200 times MIC incubated for 24 hrs", "assay_type": "functional, organism-based"}, "Staphylococcus aureus [21]": {"system": "Staphylococcus aureus", "experiment": "Antibacterial activity against rifampicin-induced persistant Staphylococcus aureus assessed as decrease in CFU at 100 times MIC measured for 10 hrs", "assay_type": "functional, organism-based"}, "Staphylococcus aureus [22]": {"system": "Staphylococcus aureus", "experiment": "Inhibition of biofilm formation in Staphylococcus aureus assessed as decrease in bacterial count at 32 times MIC incubated for 24 hrs by CLSM analysis", "assay_type": "functional, organism-based"}, "Staphylococcus aureus [23]": {"system": "Staphylococcus aureus", "experiment": "Antibacterial activity against Staphylococcus aureus infected in Kunming mouse model of subcutaneous abscess assessed as bacterial count in skin tissue at 10 mg/kg, sc measured after 48 hrs", "assay_type": "functional"}}, "note": "Activity calls are given as the source filed them. The calls are words filed in the database; no cut-off is given here."}
{"smiles": "CC(=O)OCC1=C(C(=O)O)N2C(=O)[C@@H](NC(=O)Cc3cccs3)[C@H]2SC1", "note": "[CEPHALOTHIN]", "values": [{"measurement": "Activity", "setting": "Staphylococcus aureus [1]", "value": 54, "unit": "%"}, {"measurement": "MIC", "setting": "Enterococcus faecalis", "value": 32, "unit": "µg/mL"}, {"measurement": "MIC", "setting": "Staphylococcus aureus [2]", "value": 0.25, "unit": "µg/mL"}, {"measurement": "MIC", "setting": "[3]", "value": 16, "unit": "µg/mL"}, {"measurement": "MIC", "setting": "Escherichia coli", "value": 16, "unit": "µg/mL"}, {"measurement": "HC50 at 1 h", "setting": "[4]", "value": "> 1280", "unit": "µg/mL"}, {"measurement": "Activity", "setting": "Staphylococcus aureus [5]", "value": "inactive"}, {"measurement": "Activity", "setting": "Staphylococcus aureus [6]", "value": "inactive"}, {"measurement": "Activity", "setting": "Staphylococcus aureus [7]", "value": "Active; Mic Value Of Compound In Plasma Was Equal To Mic In Mhb Medium"}, {"measurement": "Activity", "setting": "Staphylococcus aureus [8]", "value": "Active; Mic Value Of Compound In Serum Was Equal To Mic In Mhb Medium"}, {"measurement": "Activity", "setting": "Staphylococcus aureus [9]", "value": "Active"}, {"measurement": "Activity", "setting": "Staphylococcus aureus [10]", "value": "inactive"}, {"measurement": "Activity", "setting": "Staphylococcus aureus [11]", "value": "inactive"}, {"measurement": "Activity", "setting": "Staphylococcus aureus [12]", "value": "inactive"}, {"measurement": "Activity", "setting": "Staphylococcus aureus [13]", "value": "inactive"}, {"measurement": "Activity", "setting": "Staphylococcus aureus [14]", "value": "inactive"}, {"measurement": "Activity", "setting": "Staphylococcus aureus [15]", "value": "inactive"}, {"measurement": "Activity", "setting": "Staphylococcus aureus [16]", "value": "inactive"}, {"measurement": "Activity", "setting": "Staphylococcus aureus [17]", "value": "inactive"}, {"measurement": "Activity", "setting": "Staphylococcus aureus [18]", "value": "inactive"}, {"measurement": "Activity", "setting": "Staphylococcus aureus [19]", "value": "inactive"}, {"measurement": "Activity", "setting": "Staphylococcus aureus [20]", "value": "inactive"}, {"measurement": "Activity", "setting": "Staphylococcus aureus [21]", "value": "inactive"}, {"measurement": "inhibition", "setting": "Staphylococcus aureus [22]", "value": "inactive"}, {"measurement": "Activity", "setting": "Staphylococcus aureus [23]", "value": "~2 10^7CFU/ml"}]}
